These results are taken from US8592161B2, “Mutational profiles in HIV-1 protease correlated with phenotypic drug resistance” (Janssen R&D Ireland, priority 2002, dated 2013).

Like-named read-outs stand apart in the source and are kept apart here. Bounds are passed on as bounds.

Assay type in all cases: cell-based
Assay [1] concerns HIV-1/LAI strain selected with Compound 1 (100 nM, 188 days), protease R41T K70E. In words: In vitro antiviral activity in acutely infected MT4 cells, selected strain. The settings on record: for EC50: Human immunodeficiency virus 1, Table 1, strain R41T K70E (Compound 1 100 nM, 188 days), read-out: median EC50. The protocol:
(§1) Determination of the antiviral activity of a compound was done as described in Pauwels R. et al. (J Virol Methods 1988; 20(4):309-21). Various concentrations of the test compounds were brought into each well of a flat-bottom microtiter plate. Subsequently, HIV and MT4 cells were added to a final concentration of 200-250 50% cell culture infectious doses (CCID50)/well and 30,000 cells/well, respectively. After 5 days of incubation (37° C., 5% CO2), the cytopathic effect of the replicating virus was determined by the tetrazolium colorimetric MTT method. The dose protecting 50% of the cells from virus cytopathic effect was defined as the EC50, while the dose achieving 90% protection was defined as the EC90.
(§2) MT4-LTR-EGFP cells were infected at a multiplicity of infection (MOI) of 0.01 to 0.001 CCID50/cell in the presence of inhibitor. The starting concentration of the inhibitor was two to tee times the EC50, a suboptimal concentration. The cultures were sub-cultivated and scored microscopically on virus-induced fluorescence and cytopathicity every 3-4 days. The cultures were sub-cultivated in the presence of the same compound concentration until signs of virus replication were observed. The escaping virus was further cultivated in the presence of the same inhibitor concentration in order to enrich the population in resistant variants. If full virus breakthrough was observed the supernatant was collected and stored (new virus strain). Afterwards, the same virus was challenged with a higher compound concentration in order to select variants able to grow in the presence of as high as possible inhibitor concentrations. From the new viruses, a virus stock was grown in the absence of inhibitor.
(§3) In vitro drug selection experiments starting from wild-type HIV-1 under pressure of compound 1, compound 2, and Nelfinavir (NFV) have been performed. Tables 1, 2, 3, 4, and 5 show the genotypic and phenotypic characterization of the selected strains.

The subject of assay [2] is HIV-1/LAI strain selected with NFV (1000 nM, 35 days), protease D30N M46I. Described as above. The settings on record: Human immunodeficiency virus 1, Table 5, strain D30N M46I (NFV 1000 nM, 35 days), read-out: median EC50. As to the method:
as §1, §2, §3

The subject of assay [3] is HIV-1 strain selected with Comp 1 (40 nM, 161 days), protease R41G V82I. The assay is described as above. The note with it: for EC50: Human immunodeficiency virus 1, Table 4, strain R41G V82I (Comp 1 40 nM, 161 days), read-out: median EC50. As to the method:
as §1, §2, §3

The test system of assay [4] is HIV-1/LAI strain selected with Comp 1 (30 nM, 70 days), protease K70E. The description is as above. The settings on record: for EC50: Human immunodeficiency virus 1, Table 2, strain K70E (Comp 1 30 nM, 70 days), read-out: median EC50. As to the method:
as §1, §2, §3

The test system of assay [5] is HIV-1/LAI strain selected with NFV (3000 nM, 69 days), protease L10F D30N M46I V77I I85V/I N88D/N. The description is as above. The settings on record: Human immunodeficiency virus 1, Table 5, strain L10F D30N M46I V77I I85V/I N88D/N (NFV 3000 nM, 69 days), read-out: median EC50. As to the method: as §1, §2, §3
Assay [6] deals with HIV-1 strain selected with Comp 1 (40 nM, 175 days), protease R41G V82I. The description is as above. The note with it: for EC50: Human immunodeficiency virus 1, Table 4, strain R41G V82I (Comp 1 40 nM, 175 days), read-out: median EC50. As to the method:
as §1, §2, §3

In assay [7] the test system is HIV-1/LAI strain selected with Comp 1 (100 nM, 195 days), protease S37N R41S K70E. The description is as above. The note with it: for EC50: Human immunodeficiency virus 1, Table 2, strain S37N R41S K70E (Comp 1 100 nM, 195 days), read-out: median EC50. The protocol:
as §1, §2, §3

Assay [8] relates to HIV-1/LAI strain selected with NFV (9000 nM, 11l days), protease L10F D30N R41R/K K45I/K M46I V77I I84V/I I85V/I N88D. Described as above. The settings on record: Human immunodeficiency virus 1, Table 5, strain L10F D30N R41R/K K45I/K M46I V77I I84V/I I85V/I N88D (NFV 9000 nM, 11l days), read-out: median EC50. As to the method:
as §1, §2, §3

Assay [9] deals with HIV-1/LAI strain selected with Comp 1 (200 nM, 328 days), protease S37N R41S K70E. The description is as above. The note with it: for EC50: Human immunodeficiency virus 1, Table 2, strain S37N R41S K70E (Comp 1 200 nM, 328 days), read-out: median EC50. The protocol:
as §1, §2, §3

In assay [10] the test system is HIV-1 strain selected with Comp 1 (20 nM, 94 days), protease R41G/R V82V/I. The assay is described as above. The note with it: for EC50: Human immunodeficiency virus 1, Table 4, strain R41G/R V82V/I (Comp 1 20 nM, 94 days), read-out: median EC50. The protocol:
as §1, §2, §3

The test system of assay [11] is HIV-1/LAI strain selected with Comp 1 (100 nM, 139 days), protease S37S/N R41R/K K70E. The description is as above. The settings on record: for EC50: Human immunodeficiency virus 1, Table 2, strain S37S/N R41R/K K70E (Comp 1 100 nM, 139 days), read-out: median EC50. As to the method:
as §1, §2, §3

The test system of assay [12] is HIV-1/LAI strain selected with Compound 1 (30 nM, 45 days), protease R41T. The description is as above. The settings on record: for EC50: Human immunodeficiency virus 1, Table 1, strain R41T (Compound 1 30 nM, 45 days), read-out: median EC50. The protocol: as §1, §2, §3
Assay [13] relates to HIV-1/LAI strain selected with NFV (9000 nM, 140 days), protease L10F D30N R41R/K K45I/K M46I V77I I84V N88D. The assay is described as above. The settings on record: Human immunodeficiency virus 1, Table 5, strain L10F D30N R41R/K K45I/K M46I V77I I84V N88D (NFV 9000 nM, 140 days), read-out: median EC50. The protocol: as §1, §2, §3
The test system of assay [14] is HIV-1/LAI strain selected with Compound 2 (100 nM), protease R41I; Table 3. Described as above. The note with it: Human immunodeficiency virus 1, R41I strain selected with Compound 2 100 nM (head lists 116, 200, 264 days; assignment unclear), read-out: median EC50. The protocol: as §1, §2, §3
A further assay has as its system HIV-1/LAI. In words: In vitro antiviral activity in acutely infected MT4 cells, wild type. The note with it: read-out: median EC50. As to the method: as §1, §2, §3
The subject of assay [15] is HIV-1 starting strain of Table 4 (no compound, no mutations). As to the kind of experiment: In vitro antiviral activity in acutely infected MT4 cells, starting strain. The note with it: for EC50: Human immunodeficiency virus 1, starting strain HIV-1, no compound, read-out: median EC50. As to the method: as §1, §2, §3
Assay [16] has as its system HIV-1/LAI strain selected with Compound 1 (100 nM, 97 days), protease R41T K70E. In words: In vitro antiviral activity in acutely infected MT4 cells, selected strain. The settings on record: for EC50: Human immunodeficiency virus 1, Table 1, strain R41T K70E (Compound 1 100 nM, 97 days), read-out: median EC50. The protocol:
as §1
as §2, with “The cultures were sub-cultivated in the presence of the same compound concentration until signs of virus replication were observed.” left out, “Afterwards, the same virus was challenged with a higher compound concentration in order to select variants able to grow in the presence of as high as possible inhibitor concentrations.” left out

Assay [17] relates to HIV-1/LAI strain selected with Compound 2 (100 nM), protease R41I. Described as above. The note with it: Human immunodeficiency virus 1, Table 3, R41I strain selected with Compound 2 100 nM (head lists 116, 200, 264 days; assignment unclear), read-out: median EC50. As to the method:
as §1
as §2, with “The cultures were sub-cultivated in the presence of the same compound concentration until signs of virus replication were observed.” left out, “Afterwards, the same virus was challenged with a higher compound concentration in order to select variants able to grow in the presence of as high as possible inhibitor concentrations.” left out

[18] abbreviates: Human immunodeficiency virus 1, MT4, Table 1, wild-type HIV/LAI.
Where [19] appears, read: Human immunodeficiency virus 1, MT4, Table 2, wild-type HIV-1/LAI.
The mark [20] stands for this setting: Human immunodeficiency virus 1, MT4, Table 3, wild-type HIV-1/LAI.
Setting [21] is: Human immunodeficiency virus 1, MT4, Table 4, wild-type HIV-1/LAI.
Where [22] appears, read: Human immunodeficiency virus 1, MT4, Table 5, wild-type HIV-1/LAI.

As usually defined, the EC50 is the midpoint of the concentration-response curve. As for `CC(C)c1nc(CN(C)C(=O)N[C@H](C(=O)N[C@@H](Cc2ccccc2)C[C@H](O)[C@H](Cc2ccccc2)NC(=O)OCc2cncs2)C(C)C)cs1` [Ritonavir], the EC50 in assay [1] was 46 nM; in [2], 19 nM; in [3], 6.3 nM; in [4], 47 nM; in [5], 27 nM; in [6] it was 1.7 nM. For the same compound, the EC50 was determined as 14 nM in assay [7]; 86 nM in [8]; 31 nM in assay [9]; 4.2 nM in [10]; 22 nM in assay [11]; 32 nM in assay [12]. Further, the EC50 in [13] was found to be 170 nM; in assay [14] it was 22 nM; in the assay on HIV-1/LAI (setting [18]), 31 nM; with HIV-1/LAI (setting [19]), 33 nM; in the assay with HIV-1/LAI (setting [20]), 33 nM; in the assay on HIV-1/LAI (setting [21]), 33 nM. The EC50 was 33 nM in the assay on HIV-1/LAI (setting [22]), 22 nM in assay [15] and 21 nM in assay [16].
Consider `CC(C)CN(C[C@@H](O)[C@H](Cc1ccccc1)NC(=O)O[C@H]1CO[C@H]2OCC[C@H]21)S(=O)(=O)c1ccc(N)cc1` [Compound 1, Carbamic acid, [(1S,2R)-3-[[(4-aminophenyl)sulfonyl](2-methylpropyl)amino]-2-hydroxy-1-(phenylmethyl)propyl]-, (3R,3aS,6aR)-hexahydrofuro[2,3-b]furan-3-yl ester], for which the EC50 in assay [1] worked out at 44 nM; in assay [3], 2.6 nM; in assay [4] it was 6.5 nM; in assay [6] it was 1.9 nM; in assay [7], 4.7 nM; in [9] it was 0.4 nM. For the same compound, the EC50 amounted to 1.1 nM in assay [10]; 2.5 nM in [11]; 7.7 nM in assay [12]; 3.2 nM in the assay on HIV-1/LAI (setting [18]); 2.6 nM with HIV-1/LAI (setting [19]); 2.6 nM in the assay on HIV-1/LAI (setting [21]). Also, the EC50 was found to be 3.4 nM in [15] and 26 nM in assay [16]. The “median FC (fold change in EC50 as compared to wild type)” value in assay [1] (Table 1, strain R41T K70E (Compound 1 100 nM, 188 days)) came out at 10; in assay [3] (Table 4, strain R41G V82I (Comp 1 40 nM, 161 days)), 1; in assay [4] (Table 2, strain K70E (Comp 1 30 nM, 70 days)), 3; in assay [6] (Table 4, strain R41G V82I (Comp 1 40 nM, 175 days)) it was 1; in assay [7] (Table 2, strain S37N R41S K70E (Comp 1 100 nM, 195 days)) it was 2; in assay [9] (Table 2, strain S37N R41S K70E (Comp 1 200 nM, 328 days)) it was 0.2. The “median FC (fold change in EC50 as compared to wild type)” value was 0 in assay [10] (Table 4, strain R41G/R V82V/I (Comp 1 20 nM, 94 days)); 1 in assay [11] (Table 2, strain S37S/N R41R/K K70E (Comp 1 100 nM, 139 days)); 2 in assay [12] (Table 1, strain R41T (Compound 1 30 nM, 45 days)); 1 in assay [15] (starting strain HIV-1, no compound); 8 in assay [16] (Table 1, strain R41T K70E (Compound 1 100 nM, 97 days)).
With `Cc1cccc(C)c1OCC(=O)N[C@@H](Cc1ccccc1)[C@@H](O)C[C@H](Cc1ccccc1)NC(=O)[C@H](C(C)C)N1CCCNC1=O` [Lopinavir], the EC50 came to 47 nM in assay [1]; 7.7 nM in assay [2]; 1.8 nM in assay [3]; 17 nM in [4]; 24 nM in assay [5]; 1 nM in assay [6]. Also, the half-maximal effective concentration (EC50) in assay [7] was determined as 3.9 nM; in assay [8], 39 nM; in assay [9], 1.1 nM; in [10], 2 nM; in assay [11] it was 2.8 nM; in [12] it was 27 nM. In addition, the EC50 is 56 nM in [13]; less than 0.9 nM in assay [14]; 7.9 nM in the assay with HIV-1/LAI (setting [18]); 4.6 nM with HIV-1/LAI (setting [19]); 4.6 nM in the assay with HIV-1/LAI (setting [20]); 4.6 nM with HIV-1/LAI (setting [21]). For the same compound, the values for the concentration giving a half-maximal response (EC50) (with HIV-1/LAI (setting [22]); in assay [15]; in [17]) were 4.6 nM, 6.8 nM and 18 nM, respectively.
Take `CC(C)CN(C[C@@H](O)[C@H](Cc1ccccc1)NC(=O)O[C@H]1CO[C@H]2OCC[C@H]21)S(=O)(=O)c1ccc2nc(NCCN3CCCC3)sc2c1` [Compound 2]: the EC50 worked out at 6.9 nM in [14], 12 nM with HIV-1/LAI (setting [20]) and 61 nM in [17].
